Experimental data reported in ChEMBL document CHEMBL1201862, “PubChem BioAssay data set” (2004).
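Results reflect a 48-hour exposure of cells in 96-well plates to compound at five concentrations. At the GI50, growth is halved.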 The source made the active and inactive calls. Cut-off read from the data, not from the text of the source: active = GI50 up to about 1.1 µM and inactive = higher.

Columns and labels:
Experiment in all cases: NCI anticancer screen, dose series, 48 h
[1] = system: HCC 2998
[2] = system: NCI/ADR-RES
[3] = system: SK-MEL-5
[4] = system: COLO 205
[5] = system: A549
[6] = system: HL-60
[7] = system: MOLT-4
[8] = system: RXF 393
[9] = system: SNB-75
[10] = system: NCI-H522
[11] = system: SN12C
[12] = system: UO-31
[13] = system: RPMI-8226
[14] = system: A498
[15] = system: HCT-15
[16] = system: TK-10
[17] = system: SF-268
[18] = system: IGROV-1
[19] = system: UACC-62
[20] = system: SK-OV-3
[21] = system: UACC-257
[22] = system: ACHN
[23] = system: CAKI-1
[24] = system: EKVX
[25] = system: MDA-N
[26] = system: SNB-19
[27] = system: SF-295
[28] = system: OVCAR-8
[29] = system: Malme-3M
[30] = system: OVCAR-3
[31] = system: OVCAR-4
[32] = system: HT-29
[33] = system: HOP-92
[34] = system: SR
[35] = system: NCI-H460
[36] = system: MDA-MB-231
[37] = system: NCI-H226
[38] = system: T47D
[39] = system: DU-145
[40] = system: NCI-H23
[41] = system: BT-549
[42] = system: Hs-578T
[43] = system: K562
[44] = system: HCT-116
[45] = system: KM12
[46] = system: HOP-62
[47] = system: PC-3
[48] = system: SF-539
[49] = system: CCRF-CEM
[50] = system: SK-MEL-28
[51] = system: SW-620
[52] = system: U-251
[53] = system: M14
[54] = system: MCF7
[55] = system: OVCAR-5
[56] = system: LOX IMVI
[57] = system: 786-0
[58] = system: MDA-MB-435
[59] = system: SK-MEL-2

## O=C1C2=Nc3ccccc3C(O)N2c2ccccc21 (configuration not stated)
[1]
  GI50: 27.2 µM (inactive)
[2]
  GI50: 40.3 µM (inactive)
[3]
  GI50: 1.95 µM (inactive)
[4]
  GI50: 39.2 µM (inactive)
[5]
  GI50: 32.8 µM (inactive)
[6]
  GI50: 2.37 µM (inactive)
[7]
  GI50: > 87.5 µM (inactive)
[8]
  GI50: > 10 µM (inactive)
[9]
  GI50: 23.6 µM (inactive)
[10]
  GI50: 8.91 µM (inactive)
[11]
  GI50: 27.2 µM (inactive)
[12]
  GI50: 46.8 µM (inactive)
[13]
  GI50: 53.8 µM (inactive)
[14]
  GI50: 18.7 µM (inactive)
[15]
  GI50: 16.6 µM
[16]
  GI50: > 100 µM (inactive)
[17]
  GI50: 31.6 µM (inactive)
[18]
  GI50: 40.2 µM (inactive)
[19]
  GI50: 3.51 µM (inactive)
[20]
  GI50: 68.2 µM (inactive)
[21]
  GI50: 4.09 µM (inactive)
[22]
  GI50: 5.62 µM (inactive)
[23]
  GI50: 48.4 µM (inactive)
[24]
  GI50: 57.9 µM (inactive)
[25]
  GI50: 1.84 µM (inactive)
[26]
  GI50: 74.1 µM (inactive)
[27]
  GI50: 35.9 µM (inactive)
[28]
  GI50: 32.3 µM (inactive)
[29]
  GI50: 14.3 µM (inactive)
[30]
  GI50: 11.6 µM (inactive)
[31]
  GI50: > 100 µM (inactive)
[32]
  GI50: 58.2 µM (inactive)
[33]
  GI50: > 100 µM (inactive)
[34]
  GI50: 86.5 µM (inactive)
[35]
  GI50: 20.2 µM (inactive)
[36]
  GI50: 14.9 µM (inactive)
[37]
  GI50: 27.8 µM (inactive)
[38]
  GI50: 37.6 µM (inactive)
[39]
  GI50: 53.3 µM (inactive)
[40]
  GI50: 3.92 µM (inactive)
[41]
  GI50: 28.4 µM (inactive)
[42]
  GI50: 40.5 µM (inactive)
[43]
  GI50: > 76 µM (inactive)
[44]
  GI50: > 83.4 µM (inactive)
[45]
  GI50: > 78.5 µM (inactive)
[46]
  GI50: 65.3 µM (inactive)
[47]
  GI50: > 86.9 µM (inactive)
[48]
  GI50: 49.3 µM (inactive)
[49]
  GI50: > 92.7 µM (inactive)
[50]
  GI50: 23.4 µM (inactive)
[51]
  GI50: > 100 µM (inactive)
[52]
  GI50: > 52.5 µM (inactive)
[53]
  GI50: > 78.2 µM (inactive)
[54]
  GI50: 11.1 µM (inactive)
[55]
  GI50: 81.1 µM (inactive)
[56]
  GI50: 2.96 µM (inactive)
[57]
  GI50: 36.6 µM (inactive)
[58]
  GI50: 2.56 µM (inactive)

## CN(CCCNC(=O)c1cc(-c2ccccc2)nc2ccccc12)CCCNC(=O)c1cc(-c2ccccc2)nc2ccccc12
[1]
  GI50: 1.93 µM (inactive)
[2]
  GI50: 2.84 µM (inactive)
[3]
  GI50: 1.66 µM (inactive)
[4]
  GI50: 1.79 µM (inactive)
[5]
  GI50: 3.96 µM (inactive)
[6]
  GI50: 2.19 µM (inactive)
[7]
  GI50: 2.45 µM (inactive)
[8]
  GI50: 4.62 µM (inactive)
[9]
  GI50: 2.33 µM (inactive)
[10]
  GI50: 1.77 µM (inactive)
[11]
  GI50: 5.85 µM (inactive)
[12]
  GI50: 2.31 µM (inactive)
[13]
  GI50: 2.8 µM (inactive)
[14]
  GI50: 4.41 µM (inactive)
[15]
  GI50: 4 µM
[16]
  GI50: 4.45 µM (inactive)
[59]
  GI50: 1.96 µM (inactive)
[17]
  GI50: 5.32 µM (inactive)
[18]
  GI50: 4.41 µM (inactive)
[19]
  GI50: 2.07 µM (inactive)
[20]
  GI50: 13 µM (inactive)
[21]
  GI50: 1.78 µM (inactive)
[22]
  GI50: 2.81 µM (inactive)
[23]
  GI50: 9.16 µM (inactive)
[24]
  GI50: 6.1 µM (inactive)
[25]
  GI50: 1.8 µM (inactive)
[26]
  GI50: 5.97 µM (inactive)
[27]
  GI50: 1.77 µM (inactive)
[28]
  GI50: 2.32 µM (inactive)
[29]
  GI50: 1.94 µM (inactive)
[30]
  GI50: 3.27 µM (inactive)
[31]
  GI50: 3.54 µM (inactive)
[32]
  GI50: 2 µM (inactive)
[33]
  GI50: 2.64 µM (inactive)
[34]
  GI50: 3.36 µM (inactive)
[35]
  GI50: 1.78 µM (inactive)
[36]
  GI50: 2.44 µM (inactive)
[37]
  GI50: 3.81 µM (inactive)
[38]
  GI50: 2.95 µM (inactive)
[39]
  GI50: 3.58 µM (inactive)
[40]
  GI50: 6.35 µM (inactive)
[41]
  GI50: 12.9 µM (inactive)
[42]
  GI50: 4.17 µM (inactive)
[43]
  GI50: 1.99 µM (inactive)
[44]
  GI50: 1.79 µM (inactive)
[45]
  GI50: 2.02 µM (inactive)
[46]
  GI50: 1.82 µM (inactive)
[47]
  GI50: 3.56 µM (inactive)
[48]
  GI50: 2.2 µM (inactive)
[49]
  GI50: 3.73 µM (inactive)
[50]
  GI50: 1.83 µM (inactive)
[51]
  GI50: 1.85 µM (inactive)
[52]
  GI50: 2.04 µM (inactive)
[53]
  GI50: 1.71 µM (inactive)
[54]
  GI50: 1.48 µM (inactive)
[55]
  GI50: 2.28 µM (inactive)
[56]
  GI50: 1.85 µM (inactive)
[57]
  GI50: 1.7 µM (inactive)
[58]
  GI50: 1.76 µM (inactive)
